Experiments:
[1] = Formation of singlet oxygen through photosensitizing effect, ESR with 4-OH-TEMP (Examples 21, 22); details: astaxanthin final concentration 2.5 mM; blue light
Method: 25 μL of GAL691 or Z-Lys(Z)-OH (10 mM, PBS solution), 12.5 μL of 4-hydroxy-2,2,6,6-tetramethylpiperidine (4-OH-TEMP; Tokyo Chemical Industry Co., Ltd., 400 mM, PBS solution), and 12.5 μL of PBS were mixed in a 0.6 mL microtube (Watson) to prepare a reaction solution. 4-OH-TEMP changes into a nitroxide radical by capturing singlet oxygen and is therefore often utilized in the detection of singlet oxygen using ESR (Nakamura et al., J. Clin. Biochem. Nutr., 2011, 49 (2), 87-95). The reaction solution was irradiated with light at UV 365 nm, blue 470 nm, green 530 nm, or red 630 nm for 1 hour using a portable LED light source (MeCan Imaging Inc.). Then, ESR measurement was performed using a portion (50 μL) of each reaction solution. The ESR measurement was carried out under the same conditions as in Example 10 except for some parameters. The changed measurement parameters are as follows: […]
In order to quantify the concentration of the formed nitroxide radical, the following analysis was conducted: the spectrum of the observed nitroxide radical was first simulated with SpinFit module in Xepr software (Bruker Corp.) to identify a radical species (g=2.0058, I=1, AN=17.05 G). Then, the spin concentration (μM) of the simulated nitroxide radical was determined with SpinCount module. […]

[2] = test system: POD-labeled novel monoclonal antibody (SJ-5); assay: Competitive ELISA of GAL691 and Lys-hydroxy-triosidine against SJ-5 (Example 18); assay type: binding, mouse; details: immobilized Glycer-AGEs-BSA; competitor 0.625 to 10 mg/mL
Method: A solution of BSA containing AGEs derived from glyceraldehyde (stock solution: 10 mg/mL PBS solution) prepared into 1 μg/mL in a coating solution was added at 100 μL/well to a 96-well microtiter plate (COSTAR) and incubated overnight at 4° C.
(§1) Each well after the immobilization treatment was washed three times with a washing solution (300 μL), and a blocking solution (200 μL) was added thereto and left at room temperature for 1 hour.
GAL691 (prepared in Example 16) and Lys-hydroxy-triosidine (prepared in Example 17) were each dissolved in a phosphate buffer solution (0.2 M, pH 7.4) to prepare a 10 mg/mL solution. Sample solutions of 2-fold dilution series from 0.625 to 10 mg/ml (5 points) were further prepared by dilution with a diluting solution. Dilution solutions were also prepared from a blank solution containing no sample in the same way as above. […]
(§2) Absorbance was measured at a dominant wavelength of 450 nm and a sub-wavelength of 650 nm with a microplate reader (Cytation 5, BioTek Instrument Inc.), and the absorbance at the sub-wavelength was subtracted from the absorbance at the dominant wavelength. Change in the absorbance of GAL691 and Lys-hydroxy-triosidine was indicated as relative values to the absorbance of the blank solution.

PB-1 antibody = assay: Competitive ELISA of GAL691 and known AGEs against PB-1 (Example 31); assay type: binding, mouse; details: immobilized A-peak-BSA; competitor 0.04 to 2.5 mM; PB-1 0.1 μg/mL
Method: Competitive ELISA was conducted using the reagents described in Example 13. A solution of A-peak-BSA prepared into 1 μg/mL in a coating solution was added at 100 μL/well to a 96-well microtiter plate (Costar) and incubated overnight at 4° C.
as §1
GAL691 (prepared in Example 16), GLAP (prepared in Example 12), Lys-hydroxy-triosidine (prepared in Example 17), GA-pyridine (prepared in Example 28), GOLD (prepared in Example 29), and Z-Lys were each dissolved in a phosphate buffer solution (0.2 M, pH 7.4) to prepare a 100 mM solution. Then, a 10 mM solution was prepared by dilution 10-fold with a diluting solution containing BSA (1 mg/mL, FUJIFILM Wako Pure Chemical Corp.). Sample solutions of 4-fold dilution series of 0.04, 0.16, 0.63, and 2.5 mM were further prepared with a diluting solution containing a 10% (v/v) phosphate buffer solution and 1 mg/mL BSA. Ten-fold dilutions of a phosphate buffer solution with a diluting solution containing 1 mg/mL BSA were prepared as blank solutions containing no sample in the same way as above. A 0.1 μg/mL solution of the PB-1 antibody was prepared with a diluting solution containing 1 mg/mL BSA.
Each well treated with the blocking solution was washed three times with a washing solution (300 μL), and the sample solutions of 4-fold dilution series (50 μL each) and the PB-1 antibody dilution solution (50 μL) were added thereto, stirred with a plate mixer for 2 minutes, and then incubated at room temperature for 1 hour.
After the competitive reaction, each well was washed three times with a washing solution (300 μL), and peroxidase-labeled anti-mouse IgG (H+L) polyclonal antibody, F(ab′)2 fragment (Kirkegaard & Perry Laboratories, Inc.) diluted into 0.05 μg/mL with a diluting solution containing 1 mg/mL BSA was added at 100 μL/well and left standing at room temperature for 1 hour.
After washing three times with a washing solution (300 μL), a substrate solution (ELISA POD substrate TMB kit (Popular), Nacalai Tesque, Inc.) was added at 100 μL/well and incubated at room temperature for 10 minutes under light shielding. Then, color development was terminated by the addition of 2 N sulfuric acid (50 μL).
as §2, with “GAL691, GLAP, Lys-hydroxy-triosidine, GA-pyridine, GOLD,” for “GAL691”, “Z-Lys” for “Lys-hydroxy-triosidine”

## CC1=C(/C=C/C(C)=C/C=C/C(C)=C/C=C/C=C(C)/C=C/C=C(C)/C=C/C2=C(C)C(=O)[C@@H](O)CC2(C)C)C(C)(C)C[C@H](O)C1=O [astaxanthin]
[1]
  capture of singlet oxygen generated by GAL691 and light irradiation: captured

## CC(=O)NC(CCCCNCc1cc(O)c[n+](CCCCC(NC(C)=O)C(=O)O)c1)C(=O)O (stereo not drawn) [Lys-hydroxy-triosidine]
[2]
  change in absorbance relative to blank (competition for SJ-5 binding): no reduction in absorbance was observed
PB-1 antibody
  change in absorbance relative to blank (competition for PB-1 binding): no reduction in absorbance was observed
